Source: article PMC5218480 (PLoS ONE, 2017)

System: MV-4-11 cells
Test: Gene expression microarray analysis (Affymetrix PrimeView) and GSEA
Assay type: cell-based, human
Design: RFU PODN (11730768_x_at) / Fold change /veh PODN (11730768_x_at) / RFU LINC00158 (11744669_a_at) / Fold change /veh LINC00158 (11744669_a_at) / RFU DUSP10 (11751237_a_at) / Fold change /veh DUSP10 (11751237_a_at) / RFU ID3 (11757404_x_at) / Fold change /veh ID3 (11757404_x_at) / RFU PLEKHG5 (11737974_s_at) / Fold change /veh PLEKHG5 (11737974_s_at) / RFU LRRC4B (11730491_at) / Fold change /veh LRRC4B (11730491_at) / RFU GIMAP4 (11747438_a_at) / Fold change /veh GIMAP4 (11747438_a_at) / RFU KRT8 (11758183_x_at) / Fold change /veh KRT8 (11758183_x_at) / RFU CNN1 (11734310_a_at) / Fold change /veh CNN1 (11734310_a_at) / RFU VPS37D (11726825_at) / Fold change /veh VPS37D (11726825_at) / RFU C10orf10 (11716522_x_at) / Fold change /veh C10orf10 (11716522_x_at) / RFU KIR2DL2 /// KIR2DL4 /// KIR2DL5A /// KIR2DL5B /// KIR2DS1 /// KIR2DS2 /// KIR2DS3 /// KIR2DS4 /// KIR3DL3 /// KIR3DL3 /// KIR3DS1 (11738374_at) / Fold change /veh KIR2DL2 /// KIR2DL4 /// KIR2DL5A /// KIR2DL5B /// KIR2DS1 /// KIR2DS2 /// KIR2DS3 /// KIR2DS4 /// KIR3DL3 /// KIR3DL3 /// KIR3DS1 (11738374_at) / RFU C1QL1 (11718748_at) / Fold change /veh C1QL1 (11718748_at) / RFU TMPRSS4 (11747572_a_at) / Fold change /veh TMPRSS4 (11747572_a_at) / RFU HAMP (11756126_x_at) / Fold change /veh HAMP (11756126_x_at) / RFU RNFT2 (11725882_a_at) / Fold change /veh RNFT2 (11725882_a_at) / RFU NR4A2 (11747474_a_at) / Fold change /veh NR4A2 (11747474_a_at) / RFU ABCC12 (11746883_a_at) / Fold change /veh ABCC12 (11746883_a_at) / RFU TMEM136 (11760407_x_at) / Fold change /veh TMEM136 (11760407_x_at) / RFU CLDN22 /// WWC2 (11732394_at) / Fold change /veh CLDN22 /// WWC2 (11732394_at) / RFU HLA-DPB1 (11760878_x_at) / Fold change /veh HLA-DPB1 (11760878_x_at) / RFU SPINT1 (11716480_a_at) / Fold change /veh SPINT1 (11716480_a_at) / RFU GAP43 (11754022_s_at) / Fold change /veh GAP43 (11754022_s_at) / RFU A4GNT (11735810_at) / Fold change /veh A4GNT (11735810_at) / RFU PRB3 (11715151_x_at) / Fold change /veh PRB3 (11715151_x_at) / RFU TUBB4B (11761932_at) / Fold change /veh TUBB4B (11761932_at) / RFU CAPN14 (11732068_a_at) / Fold change /veh CAPN14 (11732068_a_at) / RFU TMCC2 (11721928_a_at) / Fold change /veh TMCC2 (11721928_a_at) / RFU IRGQ (11745062_a_at) / Fold change /veh IRGQ (11745062_a_at) / RFU FAM174B (11720279_a_at) / Fold change /veh FAM174B (11720279_a_at) / RFU TMPRSS4 (11748680_a_at) / Fold change /veh TMPRSS4 (11748680_a_at) / RFU FAM212B (11763350_a_at) / Fold change /veh FAM212B (11763350_a_at) / RFU PLEKHG5 (11743358_a_at) / Fold change /veh PLEKHG5 (11743358_a_at) / RFU ZSCAN30 (11745921_a_at) / Fold change /veh ZSCAN30 (11745921_a_at) / RFU CMKLR1 (11741424_a_at) / Fold change /veh CMKLR1 (11741424_a_at) / RFU LOC101060620 /// MAPK8IP1 (11723275_at) / Fold change /veh LOC101060620 /// MAPK8IP1 (11723275_at) / RFU SPTSSB (11747773_x_at) / Fold change /veh SPTSSB (11747773_x_at) / RFU PRSS12 (11739890_at) / Fold change /veh PRSS12 (11739890_at) / RFU BIN1 (11741810_x_at) / Fold change /veh BIN1 (11741810_x_at) / RFU WNT11 (11732464_a_at) / Fold change /veh WNT11 (11732464_a_at) / RFU C10orf10 (11716521_a_at) / Fold change /veh C10orf10 (11716521_a_at) / RFU C5orf56 (11738089_at) / Fold change /veh C5orf56 (11738089_at) / RFU CYB561 (11721691_x_at) / Fold change /veh CYB561 (11721691_x_at) / RFU ANKRD19P (11752326_a_at) / Fold change /veh ANKRD19P (11752326_a_at) / RFU OR2T12 /// OR2T33 /// OR2T8 (11738714_s_at) / Fold change /veh OR2T12 /// OR2T33 /// OR2T8 (11738714_s_at) / RFU VCAN (11748164_a_at) / Fold change /veh VCAN (11748164_a_at) / RFU JSRP1 (11732532_at) / Fold change /veh JSRP1 (11732532_at) / RFU KRTAP10-11 (11738290_x_at) / Fold change /veh KRTAP10-11 (11738290_x_at) / RFU MYO3A (11730013_a_at) / Fold change /veh MYO3A (11730013_a_at) / RFU EBF3 (11725865_a_at) / Fold change /veh EBF3 (11725865_a_at) / RFU CAMK2N1 (11719241_x_at) / Fold change /veh CAMK2N1 (11719241_x_at) / RFU C5orf56 (11738088_a_at) / Fold change /veh C5orf56 (11738088_a_at) / RFU OLFML3 (11715873_a_at) / Fold change /veh OLFML3 (11715873_a_at) / RFU LOC100653217 /// NTM (11731650_a_at) / Fold change /veh LOC100653217 /// NTM (11731650_a_at) / RFU MAPK11 (11762145_a_at) / Fold change /veh MAPK11 (11762145_a_at) / RFU FIZ1 (11724087_x_at) / Fold change /veh FIZ1 (11724087_x_at) / RFU OASL (11726364_x_at) / Fold change /veh OASL (11726364_x_at) / RFU SOX15 (11748057_x_at) / Fold change /veh SOX15 (11748057_x_at) / RFU CD79A (11719716_a_at) / Fold change /veh CD79A (11719716_a_at) / RFU HIST1H1D (11736915_at) / Fold change /veh HIST1H1D (11736915_at) / RFU CASKIN2 (11723855_a_at) / Fold change /veh CASKIN2 (11723855_a_at) / RFU LOC730098 (11760151_x_at) / Fold change /veh LOC730098 (11760151_x_at) / RFU OR4N2 (11742367_at) / Fold change /veh OR4N2 (11742367_at) / RFU PRRT2 (11749266_a_at) / Fold change /veh PRRT2 (11749266_a_at) / RFU SNX32 (11753110_a_at) / Fold change /veh SNX32 (11753110_a_at) / RFU CDHR5 (11726645_a_at) / Fold change /veh CDHR5 (11726645_a_at) / RFU RCAN1 (11760418_a_at) / Fold change /veh RCAN1 (11760418_a_at) / RFU FAM167A (11723789_a_at) / Fold change /veh FAM167A (11723789_a_at) / RFU FAM26E (11764081_at) / Fold change /veh FAM26E (11764081_at) / RFU ISYNA1 (11749810_s_at) / Fold change /veh ISYNA1 (11749810_s_at) / RFU ACY1 (11761880_at) / Fold change /veh ACY1 (11761880_at) / RFU 11764098_at / Fold change /veh 11764098_at / RFU SAMD14 (11745864_x_at) / Fold change /veh SAMD14 (11745864_x_at) / RFU NPB (11741838_a_at) / Fold change /veh NPB (11741838_a_at) / RFU TMPRSS6 (11731388_a_at) / Fold change /veh TMPRSS6 (11731388_a_at) / RFU KRTAP10-2 (11738614_at) / Fold change /veh KRTAP10-2 (11738614_at) / RFU ARHGAP8 /// PRR5-ARHGAP8 (11727945_x_at) / Fold change /veh ARHGAP8 /// PRR5-ARHGAP8 (11727945_x_at) / RFU KRTAP5-7 /// NADSYN1 (11734609_at) / Fold change /veh KRTAP5-7 /// NADSYN1 (11734609_at) / RFU RASL12 (11751679_a_at) / Fold change /veh RASL12 (11751679_a_at) / RFU CDKN2B (11736163_a_at) / Fold change /veh CDKN2B (11736163_a_at) / RFU PRF1 (11729649_at) / Fold change /veh PRF1 (11729649_at) / RFU, ZNF638 /// ZNF638-IT1 / Fold change vs veh, ZNF638 /// ZNF638-IT1 / RFU, PANK3 / Fold change vs veh, PANK3 / RFU, SH3YL1 / Fold change vs veh, SH3YL1 / RFU, ZEB2 / Fold change vs veh, ZEB2 / RFU, NRIP1 / Fold change vs veh, NRIP1 / RFU, PTTG1IP / Fold change vs veh, PTTG1IP / RFU, CAPN2 / Fold change vs veh, CAPN2 / RFU, MED14 / Fold change vs veh, MED14 / RFU, SNORA58 / Fold change vs veh, SNORA58 / RFU, C1orf63 / Fold change vs veh, C1orf63 / RFU, LRRFIP1 / Fold change vs veh, LRRFIP1 / RFU, NDUFAF7 / Fold change vs veh, NDUFAF7 / RFU, SLC12A2 / Fold change vs veh, SLC12A2 / RFU, IBTK / Fold change vs veh, IBTK / RFU, ESF1 / Fold change vs veh, ESF1 / Fold change vs veh, TMEM50B / RFU, TAOK1 / Fold change vs veh, TAOK1 / RFU, ACBD3 / Fold change vs veh, ACBD3 / RFU, TMA16 / Fold change vs veh, TMA16 / RFU, RWDD3 / Fold change vs veh, RWDD3 / RFU, BCAT1 / Fold change vs veh, BCAT1 / RFU, EDEM3 / Fold change vs veh, EDEM3 / RFU, TMEM33 / Fold change vs veh, TMEM33 / RFU, WDR75 / Fold change vs veh, WDR75 / RFU, AHCTF1 / Fold change vs veh, AHCTF1 / RFU, TFRC / Fold change vs veh, TFRC / RFU, ZDHHC17 / Fold change vs veh, ZDHHC17 / RFU, NOM1 / Fold change vs veh, NOM1 / RFU, ARL8B / Fold change vs veh, ARL8B / RFU, ZBTB11 / Fold change vs veh, ZBTB11 / RFU, TAMM41 / Fold change vs veh, TAMM41 / RFU, KIAA1704 /// LOC100996395 / Fold change vs veh, KIAA1704 /// LOC100996395 / RFU, ING1 / Fold change vs veh, ING1 / RFU, TRMT61B / Fold change vs veh, TRMT61B / RFU, FUBP3 / Fold change vs veh, FUBP3 / RFU, TP53 / Fold change vs veh, TP53 / RFU, TNKS2 / Fold change vs veh, TNKS2 / RFU, ZFP14 / Fold change vs veh, ZFP14 / RFU, ACTR2 / Fold change vs veh, ACTR2 / RFU, PPP3R1 / Fold change vs veh, PPP3R1 / RFU, PIK3R1 / Fold change vs veh, PIK3R1 / RFU, HNRNPA1 / Fold change vs veh, HNRNPA1 / RFU, RNF170 / Fold change vs veh, RNF170 / RFU, ZNF28 / Fold change vs veh, ZNF28 / RFU, RNGTT / Fold change vs veh, RNGTT / RFU, OGT / Fold change vs veh, OGT / RFU, BRD1 / Fold change vs veh, BRD1 / RFU, MARS / Fold change vs veh, MARS / RFU, ZNF655 / Fold change vs veh, ZNF655 / RFU, FAHD1 / Fold change vs veh, FAHD1 / RFU, BDP1 / Fold change vs veh, BDP1 / RFU, LRRCC1 / Fold change vs veh, LRRCC1 / RFU, ARID1A / Fold change vs veh, ARID1A / RFU, ZNF146 / Fold change vs veh, ZNF146 / RFU, ZNF330 / Fold change vs veh, ZNF330 / RFU, GPN3 / Fold change vs veh, GPN3 / RFU, C9orf123 / Fold change vs veh, C9orf123 / RFU, N4BP2L2 / Fold change vs veh, N4BP2L2 / RFU, ARFIP1 / Fold change vs veh, ARFIP1 / RFU, FAM179B / Fold change vs veh, FAM179B / RFU, BCL10 / Fold change vs veh, BCL10 / RFU, UHRF1BP1L / Fold change vs veh, UHRF1BP1L / RFU, BET1 / Fold change vs veh, BET1 / RFU, CNOT2 / Fold change vs veh, CNOT2 / RFU, ZNF268 / Fold change vs veh, ZNF268 / Fold change vs veh, ZNF507 / RFU, DGCR2 / Fold change vs veh, DGCR2 / RFU, WDSUB1 / Fold change vs veh, WDSUB1 / Fold change vs veh, HSP90B1 /// MIR3652 / RFU, ADSS / Fold change vs veh, ADSS / RFU, GK / Fold change vs veh, GK / RFU, ZNF148 / Fold change vs veh, ZNF148 / RFU, TAF9 / Fold change vs veh, TAF9 / RFU, SLC1A5 / Fold change vs veh, SLC1A5 / RFU, SLMO2 / Fold change vs veh, SLMO2 / RFU, ABCC4 / Fold change vs veh, ABCC4 / RFU, LOC101060439 /// RAP1B / Fold change vs veh, LOC101060439 /// RAP1B / RFU, RFX7 / Fold change vs veh, RFX7 / RFU, GTPBP10 / Fold change vs veh, GTPBP10 / RFU, CNEP1R1 / Fold change vs veh, CNEP1R1 / RFU, BIVM-ERCC5 /// ERCC5 / Fold change vs veh, BIVM-ERCC5 /// ERCC5 / RFU, ILF3 / Fold change vs veh, ILF3 / RFU 11762660_at / Fold change /veh 11762660_at / RFU VCAN (11757783_s_at) / Fold change /veh VCAN (11757783_s_at) / RFU DDX43 (11728927_at) / Fold change /veh DDX43 (11728927_at) / RFU KRT8 (11758188_x_at) / Fold change /veh KRT8 (11758188_x_at) / RFU NKD1 (11759106_at) / Fold change /veh NKD1 (11759106_at) / RFU SRD5A1 (11742802_a_at) / Fold change /veh SRD5A1 (11742802_a_at) / RFU TPSAB1 /// TPSB2 (11721975_s_at) / Fold change /veh TPSAB1 /// TPSB2 (11721975_s_at) / RFU GSTM3 (11746129_a_at) / Fold change /veh GSTM3 (11746129_a_at) / RFU IL23R (11737362_x_at) / Fold change /veh IL23R (11737362_x_at) / RFU TMEM51 (11727254_a_at) / Fold change /veh TMEM51 (11727254_a_at) / RFU PIWIL2 (11732686_x_at) / Fold change /veh PIWIL2 (11732686_x_at) / RFU ORM1 (11744905_x_at) / Fold change /veh ORM1 (11744905_x_at) / RFU CCDC152 (11743942_at) / Fold change /veh CCDC152 (11743942_at) / RFU ECM1 (11717891_a_at) / Fold change /veh ECM1 (11717891_a_at) / RFU IL23R (11748794_a_at) / Fold change /veh IL23R (11748794_a_at) / RFU TNFAIP8L3 (11732012_x_at) / Fold change /veh TNFAIP8L3 (11732012_x_at) / RFU MBOAT4 (11741988_at) / Fold change /veh MBOAT4 (11741988_at) / RFU 11764193_at / Fold change /veh 11764193_at / RFU TMEM53 (11763286_at) / Fold change /veh TMEM53 (11763286_at) / RFU MAGEB2 (11727129_at) / Fold change /veh MAGEB2 (11727129_at) / RFU TMEM200A (11744735_a_at) / Fold change /veh TMEM200A (11744735_a_at) / RFU CCDC152 (11751479_a_at) / Fold change /veh CCDC152 (11751479_a_at) / RFU FAM211A (11726209_a_at) / Fold change /veh FAM211A (11726209_a_at) / RFU RGS16 (11746705_a_at) / Fold change /veh RGS16 (11746705_a_at) / RFU VCAN (11755009_s_at) / Fold change /veh VCAN (11755009_s_at) / RFU RHOB (11743442_s_at) / Fold change /veh RHOB (11743442_s_at) / RFU RGS16 (11720943_a_at) / Fold change /veh RGS16 (11720943_a_at) / RFU RGS16 (11720944_at) / Fold change /veh RGS16 (11720944_at) / RFU, VPS4B / Fold change vs veh, VPS4B / RFU, CREB1 / Fold change vs veh, CREB1 / RFU, DNAJC13 / Fold change vs veh, DNAJC13 / RFU, GNAQ / Fold change vs veh, GNAQ / RFU, CDK5R1 / Fold change vs veh, CDK5R1 / RFU, ZRANB3 / Fold change vs veh, ZRANB3 / RFU, CUL4A / Fold change vs veh, CUL4A / RFU, CCNY / Fold change vs veh, CCNY / RFU, UFL1 / Fold change vs veh, UFL1 / RFU, COG3 / Fold change vs veh, COG3 / RFU, DIAPH2 / Fold change vs veh, DIAPH2 / RFU, SKA2 / Fold change vs veh, SKA2 / RFU, AFF3 / Fold change vs veh, AFF3 / RFU, LMF1 / Fold change vs veh, LMF1 / RFU, IPO11 / Fold change vs veh, IPO11 / RFU, DFFB / Fold change vs veh, DFFB / RFU, FOXP1 / Fold change vs veh, FOXP1 / RFU, CARD8 / Fold change vs veh, CARD8 / RFU, STRN3 / Fold change vs veh, STRN3 / RFU, ADK / Fold change vs veh, ADK / RFU, RASSF2 / Fold change vs veh, RASSF2 / RFU, WIPF1 / Fold change vs veh, WIPF1 / RFU, LARP1B / Fold change vs veh, LARP1B / RFU, RASA1 / Fold change vs veh, RASA1 / RFU, RB1 / Fold change vs veh, RB1 / RFU, PPFIA1 / Fold change vs veh, PPFIA1 / RFU, MAT2A / Fold change vs veh, MAT2A / RFU, CCT5 / Fold change vs veh, CCT5 / RFU, WDR92 / Fold change vs veh, WDR92 / RFU, CUX1 / Fold change vs veh, CUX1 / RFU, TTC7A / Fold change vs veh, TTC7A / RFU, TMEM135 / Fold change vs veh, TMEM135 / RFU, DEPTOR / Fold change vs veh, DEPTOR / RFU, CPM / Fold change vs veh, CPM / RFU, DNAJB6 / Fold change vs veh, DNAJB6 / RFU, CACNA2D3 / Fold change vs veh, CACNA2D3 / RFU, DTX4 / Fold change vs veh, DTX4 / RFU, TFCP2 / Fold change vs veh, TFCP2 / RFU, GMCL1 /// GMCL1P1 / Fold change vs veh, GMCL1 /// GMCL1P1 / RFU, AEBP2 / Fold change vs veh, AEBP2 / RFU, SNHG1 /// SNORD22 /// SNORD25 /// SNORD26 /// SNORD27 /// SNORD28 /// SNORD29 /// SNORD31 / Fold change vs veh, SNHG1 /// SNORD22 /// SNORD25 /// SNORD26 /// SNORD27 /// SNORD28 /// SNORD29 /// SNORD31 / Fold change (Aza/veh), C12orf56 (ProbeSet 11735607_a_at) / Fold change (ACY-1035/veh), C12orf56 (ProbeSet 11735607_a_at) / Fold change (Aza/veh), FGFR1OP (ProbeSet 11751329_s_at) / Fold change (ACY-1035/veh), FGFR1OP (ProbeSet 11751329_s_at) / Fold change (Aza/veh), VPS36 (ProbeSet 11739960_a_at) / Fold change (ACY-1035/veh), VPS36 (ProbeSet 11739960_a_at) / RFU SYPL1 (11715823_x_at) / Fold change /veh SYPL1 (11715823_x_at) / RFU IGFBP7 (11715501_s_at) / Fold change /veh IGFBP7 (11715501_s_at) / RFU REEP3 (11722064_at) / Fold change /veh REEP3 (11722064_at) / RFU IGLL1 (11728026_x_at) / Fold change /veh IGLL1 (11728026_x_at): dose or concentration left out as unconfirmed
Conditions: ProbeSet 11721611_a_at; LIST D

**Q.** With Nc1ccc(-c2cccs2)cc1NC(=O)c1ccc2c(c1)cc(C1CC1)n2CCN1CCOCC1 [ACY-1035] as the compound, how does the “RFU, IPO11” value read?
**A.** 82.15 RFU
